We go through two molecules from patent US11672794B2, “Therapeutic targeting of the BAP1 complex in cancer” (NORTHWESTERN UNIVERSITY, priority 2019, dated 2023).

One test concerns the target T1, recombinant BAP1 (Homo sapiens, UniProt Q92560).
T1 construct: made in house; host or cells: bacteria
T1 sequence (Q92560 1-729): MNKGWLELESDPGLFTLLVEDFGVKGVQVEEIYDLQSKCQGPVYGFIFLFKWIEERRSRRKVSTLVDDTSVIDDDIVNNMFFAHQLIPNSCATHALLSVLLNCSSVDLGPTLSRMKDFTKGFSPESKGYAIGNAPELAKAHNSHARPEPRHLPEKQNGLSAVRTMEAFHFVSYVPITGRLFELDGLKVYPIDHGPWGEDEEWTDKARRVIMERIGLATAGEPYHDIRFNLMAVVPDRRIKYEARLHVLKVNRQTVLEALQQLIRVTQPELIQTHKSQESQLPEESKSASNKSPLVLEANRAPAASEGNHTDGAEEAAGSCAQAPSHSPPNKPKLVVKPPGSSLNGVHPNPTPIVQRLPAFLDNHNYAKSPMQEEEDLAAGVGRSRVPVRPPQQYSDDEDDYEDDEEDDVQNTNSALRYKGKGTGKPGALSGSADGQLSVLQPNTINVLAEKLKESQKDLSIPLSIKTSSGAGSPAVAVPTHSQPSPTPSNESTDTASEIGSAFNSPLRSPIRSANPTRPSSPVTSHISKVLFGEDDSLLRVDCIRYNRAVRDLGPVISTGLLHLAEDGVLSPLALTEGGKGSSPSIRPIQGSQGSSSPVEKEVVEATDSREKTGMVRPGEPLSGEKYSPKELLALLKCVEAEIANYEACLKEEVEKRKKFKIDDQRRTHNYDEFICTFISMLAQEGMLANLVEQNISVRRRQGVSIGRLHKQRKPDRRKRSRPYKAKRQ
Put plainly: Ub-AMC assay of BAP1 deubiquitinase activity. The following applies: 100 nM Ub-AMC, 0.1 nM recombinant BAP1. Type of test: biochemical. The source says:
(§1) Since the truncated ASXL1 functions as co-activator of BAP1 in human leukemic cells, and based on previous studies, mutations in ASXL1 lead to the hyper-activation of BAP1 in mice (16), we sought to identify small molecule inhibitors that inhibit BAP1 catalytic activity. Although crucial catalytic residues in BAP1 have been identified through general homology with other deubiquitinases, a detailed atomic resolution structure of BAP1 has yet to be determined. Therefore, because a structure-based approach is currently unattainable, we adopted a structure-agnostic unbiased biochemical screen for small molecule inhibitors of BAP1′s deubiquitinase activity. Toward this goal, we employed an Ubiquitin- 7-amino-4-methylcoumarin (Ub-AMC) screening platform. Ubiquitin-AMC (Ub-AMC) is a fluorogenic substrate for ubiquitin hydrolases based on the C-terminus derivatization of ubiquitin with 7-amido-4-methylcoumarin (AMC). Upon incubation with a protease recognizing Ubiquitin, such as BAP1, AMC is released and the increase in fluorescence can be measured (7, 17) (FIG. 4A). We optimized the screening condition and finally used 100 nM Ub-AMC and 0.1 nM recombinant BAP1 (FIG. 10A) for the reaction (FIG. 10B). The top 1% hits from 3,000 of 8-compound mixtures were subjected for a secondary validation (FIG. 10C, D). […]

For test [1], the system named is 293T-ASXL1-Y591* mutant cells vs 293T-ASXL1-WT cells. The test is described as follows: Cell viability (cell counting) of 293T-ASXL1-WT and 293T-ASXL1-Y591* mutant cells, 72 hours. Format: cell-based, human. The following applies: cell counting assay. The protocol: FIG. 11. Analog for compound #7152836 A) Structure of 16 analogs for compound #7152836. B) Dose-dependent inhibition of BAP1 activity the analogs in (A) in Ub-AMC assay. C) 293T-ASXL1-WT, 293T-ASXL1-Y591* mutant cells were treated with different concentrations of Doxorubicin, HSP90 inhibitor PU-H71, UCHLS inhibitor b-AP1 and iBAP for 72 hours. The cell viability was determined by cell counting assay.
as §1, with “Ubiquitin-AMC (Ub-AMC) is a fluorogenic substrate for ubiquitin hydrolases based on the C-terminus derivatization of ubiquitin with 7-amido-4-methylcoumarin (AMC).” left out, “4A).” for “4A). We optimized the screening condition and finally used 100 nM Ub-AMC and 0.1 nM recombinant BAP1 (FIG. 10A) for the reaction (FIG. 10B). The top 1% hits from 3,000 of 8-compound mixtures were subjected for a secondary validation (FIG. 10C, D).”

With `COc1ccccc1C(=O)NC(=S)Nc1ccc2oc(-c3cc(F)c(F)cc3Cl)nc2c1` [#7231120], the “inhibition of BAP1 catalytic activity in vitro” value on recombinant BAP1 is “could efficiently inhibit BAP1 catalytic activity”.
In the case of `C=CC(=O)N1C/C(=C\c2ccc([N+](=O)[O-])cc2)C(=O)/C(=C/c2ccc([N+](=O)[O-])cc2)C1` [UCHLS inhibitor], the “difference of cell viability between ASXL1 wild type and mutant cells” value in test [1] is “did not observe any significant difference”.
